Laboratory results reported in ChEMBL document CHEMBL3351364 (J Med Chem, 2014).

Key:
[1] = Oral bioavailability in monkey at 2.5 mg/kg; assay type: ADME, organism-based, Macaca mulatta; settings: rhesus monkey, in vivo
[2] = Oral bioavailability in Sprague-Dawley rat at 1 mg/kg; assay type: ADME, organism-based; settings: in vivo
[3] = Cmax in monkey at 2.5 mg/kg, po; assay type: ADME, organism-based, Macaca mulatta; parameters: dose 2.5 mg/kg, route oral; settings: rhesus monkey, in vivo
[4] = Half life in beagle dog at 2.5 mg/kg, po; assay type: ADME, organism-based, Canis lupus familiaris; parameters: dose 2.5 mg/kg, route oral; settings: in vivo
[5] = Cmax in beagle dog at 2.5 mg/kg, po; assay type: ADME, organism-based, Canis lupus familiaris; parameters: dose 2.5 mg/kg, route oral; settings: in vivo
[6] = Oral bioavailability in beagle dog at 2.5 mg/kg; assay type: ADME, organism-based, Canis lupus familiaris; settings: in vivo
[7] = Half life in monkey at 2.5 mg/kg, po; assay type: ADME, organism-based, Macaca mulatta; parameters: dose 2.5 mg/kg, route oral; settings: rhesus monkey, in vivo
[8] = Cmax in Sprague-Dawley rat at 3 mg/kg, po; assay type: ADME, organism-based; parameters: dose 3 mg/kg, route oral; settings: in vivo
Hepatitis C virus = assay: Antiviral activity against HCV genotype 1b infected in human Huh7 cells after 3 days by cell-based replicon assay; assay type: functional, Hepacivirus hominis; settings: Huh-7, 72 h
[9] = Half life in Sprague-Dawley rat at 3 mg/kg, po; assay type: ADME, organism-based; parameters: dose 3 mg/kg, route oral; settings: in vivo

**Q.** Which bioavailability [1] does the source give for `COC(=O)N[C@@H](C(=O)N1CCC[C@H]1C(=O)Nc1ccc([C@H]2CC[C@@H](c3ccc(NC(=O)[C@@H]4CCCN4C(=O)[C@H](NC(=O)OC)C(C)C)cc3)N2c2ccc(C(C)(C)C)cc2)cc1)C(C)C` here?
**A.** The bioavailability was 35%.

**Q.** What about the bioavailability [2] of the same compound?
**A.** Its bioavailability is 6.2%.

**Q.** And the Cmax [3]?
**A.** The Cmax was 320 nM.

**Q.** What about the half-life [4] of the same compound?
**A.** Its half-life is 7.3 h.

**Q.** What about the Cmax [5] of the same compound?
**A.** The Cmax was 720 nM.

**Q.** What about the bioavailability [6] of the same compound?
**A.** Its bioavailability is 57%.

**Q.** And the half-life [7]?
**A.** The half-life was 5 h.

**Q.** What about the Cmax [8] of the same compound?
**A.** The Cmax was 3360 nM.

**Q.** And the EC50 (Hepatitis C virus)?
**A.** Its EC50 is 5 pM.

**Q.** And the half-life [9]?
**A.** The half-life was 15.9 h.
